Assay results taken from paper PMC8927117, “Structural Insight into the MCM double hexamer activation by Dbf4-Cdc7 kinase” (Nature Communications, 2022).

Experiments:
[1] = tested on: T1, MCM double hexamer (MCM-DH, Mcm2-7); assay: cryo-EM structure; set-up: species or system Saccharomyces cerevisiae; details: with DDK bound, nucleotide-binding pockets of MCM subunits
T1 construct: endogenous double hexamer from G1 chromatin, TEV-3xFLAG tag on Mcm7 or Mcm2

DDK (Dbf4-Cdc7 kinase) = molecular target: T2, DDK (Dbf4-Cdc7 kinase) (Saccharomyces cerevisiae, UniProt P06243); assay: cryo-EM structure; assay type: binding; details: bound to MCM double hexamer, glutaraldehyde Grafix, 1 mM ATP-γ-S, 8 mM Mg(OAc)2; Cdc7 active center
T2 construct: Dbf4 704 residues; with DDK kinase regulatory subunit DBF4
T2 sequence (P06243 whole entry): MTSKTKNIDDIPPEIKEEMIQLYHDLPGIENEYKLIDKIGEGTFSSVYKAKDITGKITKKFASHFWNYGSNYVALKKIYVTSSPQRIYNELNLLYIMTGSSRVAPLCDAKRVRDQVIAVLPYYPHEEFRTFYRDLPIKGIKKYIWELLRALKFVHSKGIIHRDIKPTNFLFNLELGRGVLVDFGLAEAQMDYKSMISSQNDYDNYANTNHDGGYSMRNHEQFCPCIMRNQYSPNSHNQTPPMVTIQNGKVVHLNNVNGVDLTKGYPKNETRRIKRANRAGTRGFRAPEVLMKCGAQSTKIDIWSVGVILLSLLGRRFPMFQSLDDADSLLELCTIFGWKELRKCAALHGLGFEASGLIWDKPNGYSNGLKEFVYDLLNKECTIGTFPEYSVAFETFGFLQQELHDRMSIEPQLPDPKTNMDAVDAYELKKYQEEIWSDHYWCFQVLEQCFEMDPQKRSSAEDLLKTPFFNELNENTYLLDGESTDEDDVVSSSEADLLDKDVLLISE
T2 sequence (P32325 whole entry partner): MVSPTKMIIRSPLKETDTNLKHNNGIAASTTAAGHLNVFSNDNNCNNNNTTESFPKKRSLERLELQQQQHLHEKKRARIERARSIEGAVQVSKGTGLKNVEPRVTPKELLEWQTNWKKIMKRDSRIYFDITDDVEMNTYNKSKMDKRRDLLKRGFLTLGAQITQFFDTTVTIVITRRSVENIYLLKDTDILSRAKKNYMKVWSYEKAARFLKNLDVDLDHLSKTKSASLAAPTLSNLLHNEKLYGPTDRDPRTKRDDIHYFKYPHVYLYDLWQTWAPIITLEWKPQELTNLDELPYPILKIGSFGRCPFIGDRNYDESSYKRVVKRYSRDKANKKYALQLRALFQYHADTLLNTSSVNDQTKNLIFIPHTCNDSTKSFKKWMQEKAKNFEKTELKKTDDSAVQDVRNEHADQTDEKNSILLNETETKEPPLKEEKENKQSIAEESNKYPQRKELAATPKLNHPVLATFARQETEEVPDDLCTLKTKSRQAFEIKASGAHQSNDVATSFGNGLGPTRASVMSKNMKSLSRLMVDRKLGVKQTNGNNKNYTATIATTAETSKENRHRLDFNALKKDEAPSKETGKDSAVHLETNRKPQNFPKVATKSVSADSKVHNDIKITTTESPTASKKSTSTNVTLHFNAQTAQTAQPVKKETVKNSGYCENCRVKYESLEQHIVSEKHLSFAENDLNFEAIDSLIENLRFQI

SMILES	cryo-EM structure ([1]; no ADP added)	cryo-EM structure (DDK (Dbf4-Cdc7 kinase))	cryo-EM structure ([1]; 1 mM ATP-γ-S)
Nc1ncnc2c1ncn2[C@@H]1O[C@H](COP(=O)(O)OP(=O)(O)O)[C@@H](O)[C@H]1O [ADP]	nucleotide-binding pockets of MCM subunits were modeled as ATP-γ-S or ADP	–	–
Nc1ncnc2c1ncn2[C@@H]1O[C@H](COP(=O)(O)OP(=O)(O)OP(O)(O)=S)[C@@H](O)[C@H]1O [ATP-γ-S]	–	Thr506, is situated close to the γ-phosphate of the ATP-γ-S nucleotide in the active center	nucleotide-binding pockets of MCM subunits were modeled as ATP-γ-S or ADP
